# Measured values taken from publication PMC9050848, “Carbamoyl-N-aryl-imine-urea: a new framework to obtain a putative leishmanicidal drug-candidate” (RSC Advances, 2020).
# Columns and labels:
# [1] = Plasma stability (UPLC-MS/MS recovery); format: in vitro ADME; settings: 4 hours, 37 °C, rat plasma diluted 1:1 with PBS pH 7.4
# Description: To investigate the potential plasma instability of the carbamoyl-N-arylimine-urea subunit, designed as a new peptide mimetic framework, compound 10e (LASSBio-1736) was selected to investigate its plasma stability,[21,22] previously to the evaluation of its in vivo leishmanicidal effect. Quantitation of 10e (LASSBio-1736), benzocaine standard (positive control; it means a substrate drug for plasma hydrolysis) and ketoconazole (internal standard) was determined by UPLC-MS/MS, after incubation of the compounds at 0, 30, 60, 120 and 240 min with rat plasma, and measuring the peak areas in three different experiments.
# For analysis of plasma stability, 5 μL (250 ng mL^−1) of a concentrated solution of 10e (LASSBio-1736) or the positive control benzocaine (stock concentration = 10 000 ng mL^−1 solubilized in DMSO) was added in 195 μL of rat plasma solution (1 : 1) diluted with PBS (pH 7.4). […] The supernatant (400 μL) were placed in 2 mL vials, and analyzed by UPLC-MS/MS. […]
# Detection in single reaction monitoring (SRM) mode was used for determination of the LASSBio-1736 (10e) m/z 419.1 → 205.0, benzocaine m/z 166.1 → 137.9 and ketoconazole (IS) 532.1 → 490.3, with a tolerance of mass deviation of 6 ppm, operating in positive ionization mode. The data were acquired using TraceFinder 3.2. software (Thermo Fisher Scientific, Waltham, USA), and analyzed using GraphPad Prism 5 program.
# [2] = Toxicity in treated infected mice (survival, spleen weight, serum biochemistry); format: in vivo; settings: 30 μmol per kg per day × 28 days
# Description: The survival of BALB/c mice infected with L. amazonensis untreated and treated during 28 days with the daily dose of 30 μmol kg^−1 with meglumine antimoniate, miltefosine and 10e (LASSBio-1736) was analyzed. Animal mortality was not observed for the groups treated with 10e and miltefosine, while 20% of death was identified from the 25th day of treatment with meglumine antimoniate (Fig. 11). After the end of treatment, the animal's toxicity was investigated looking for any alterations on spleen weight and on alanine aminotransferase (ALT), aspartate aminotransferase (AST), creatinine (CREA) and urea serum levels.
# This study (protocol number 2013.02) was approved by the Ethics Committee for Animal Experimentation of the Federal University of Alagoas (Brazil). All animals received humane care in compliance with the ‘Principles of laboratory animal care’ formulated by the National Society for Medical Research and the ‘Guide for the care and use of laboratory animals’ prepared by the National Academy of Sciences (Washington, DC). Then, 1 × 10^5 stationary promastigotes (5 days of culture in Schneider's medium) of L. amazonensis were inoculated subcutaneously into the right ear dermis of 6 week-old female BALB/c mice weighing ca. 20 g. and later treated with 10e (i.p.), miltefosine (p.o.) or meglumine antimoniate (i.p.) at 30 μmol kg^−1 × 28 days. The vehicle to solubilize 10e (LASSBio-1736) and standard drugs was Tween 20 (50 μL) and sterile water for injection, which was also administrated by i.p. route in two controls groups (non-infected control and infected control). The lesion size was measured using a paquimeter.[32] The parasite loads of infected ears and draining lymph nodes were determined using a quantitative limiting-dilution assay.[33] Toxicity was also evaluated due to alterations on spleen weight and by biochemistry dosages in plasma, performed according to the manufacturer's instructions (Doles, BRA). Data obtained from experiments were expressed as the mean ± S.E.M. and statistical differences between the treated and the vehicle groups of experiments were evaluated by ANOVA and Dunnett hoc tests.
compound,measurement,setting,value
"O=C(N/N=C/c1ccc(C(F)(F)F)cc1)NNC(=O)c1ccc(Cl)cc1Cl [LASSBio-1736 (10e), 2,4-dichloro-phenylcarbamoyl-N-4-trifluoromethylphenylimine-urea]",Compound recovery after incubation with rat plasma,[1],completely recovered
same,"Serum levels of ALT, AST, creatinine and urea","[2]; after end of treatment, i.p.",did not significantly interfere
same,Spleen weight,[2]; last day of treatment,did not alter animal's spleen weight
